Results as given in ChEMBL document CHEMBL5257037, “Side Chain Cyclized Aromatic Amino Acids: Great Tools as Local Constraints in Peptide and Peptidomimetic Design” (J Med Chem, 2016).

These molecules were tested against T1, B2 bradykinin receptor (Homo sapiens) (UniProt P30411) (assay: Inhibition of B2 bradykinin receptor (unknown origin) at 10 mM relative to control).
T1 sequence (whole entry): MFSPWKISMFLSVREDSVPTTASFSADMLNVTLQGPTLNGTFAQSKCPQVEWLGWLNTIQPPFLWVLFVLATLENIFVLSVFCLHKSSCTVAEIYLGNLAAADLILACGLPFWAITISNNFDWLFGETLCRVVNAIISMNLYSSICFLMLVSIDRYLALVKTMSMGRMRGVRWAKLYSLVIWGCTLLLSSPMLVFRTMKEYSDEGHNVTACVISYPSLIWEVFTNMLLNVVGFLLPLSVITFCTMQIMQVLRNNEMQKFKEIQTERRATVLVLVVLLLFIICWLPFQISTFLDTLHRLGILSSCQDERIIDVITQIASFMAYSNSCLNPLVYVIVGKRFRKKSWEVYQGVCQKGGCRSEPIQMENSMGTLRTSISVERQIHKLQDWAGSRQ
`C[C@@H](C(=O)N[C@@H](CCCNC(=N)N)C(=O)O)N1Cc2ccccc2C[C@@H](NC(=O)[C@H](CO)NC(=O)[C@H](Cc2ccccc2)NC(=O)CNC(=O)[C@@H]2CCCN2C(=O)[C@@H]2CCCN2C(=O)[C@@H](N)CCCNC(=N)N)C1=O` was tested, and the inhibition was 54%.

These molecules were tested against T2, Angiotensin-converting enzyme (Rattus norvegicus) (UniProt P47820) (assay: In vivo inhibition of ACE in iv dosed rat assessed as inhibition of Ang1 induced pressor response).
T2 sequence (whole entry): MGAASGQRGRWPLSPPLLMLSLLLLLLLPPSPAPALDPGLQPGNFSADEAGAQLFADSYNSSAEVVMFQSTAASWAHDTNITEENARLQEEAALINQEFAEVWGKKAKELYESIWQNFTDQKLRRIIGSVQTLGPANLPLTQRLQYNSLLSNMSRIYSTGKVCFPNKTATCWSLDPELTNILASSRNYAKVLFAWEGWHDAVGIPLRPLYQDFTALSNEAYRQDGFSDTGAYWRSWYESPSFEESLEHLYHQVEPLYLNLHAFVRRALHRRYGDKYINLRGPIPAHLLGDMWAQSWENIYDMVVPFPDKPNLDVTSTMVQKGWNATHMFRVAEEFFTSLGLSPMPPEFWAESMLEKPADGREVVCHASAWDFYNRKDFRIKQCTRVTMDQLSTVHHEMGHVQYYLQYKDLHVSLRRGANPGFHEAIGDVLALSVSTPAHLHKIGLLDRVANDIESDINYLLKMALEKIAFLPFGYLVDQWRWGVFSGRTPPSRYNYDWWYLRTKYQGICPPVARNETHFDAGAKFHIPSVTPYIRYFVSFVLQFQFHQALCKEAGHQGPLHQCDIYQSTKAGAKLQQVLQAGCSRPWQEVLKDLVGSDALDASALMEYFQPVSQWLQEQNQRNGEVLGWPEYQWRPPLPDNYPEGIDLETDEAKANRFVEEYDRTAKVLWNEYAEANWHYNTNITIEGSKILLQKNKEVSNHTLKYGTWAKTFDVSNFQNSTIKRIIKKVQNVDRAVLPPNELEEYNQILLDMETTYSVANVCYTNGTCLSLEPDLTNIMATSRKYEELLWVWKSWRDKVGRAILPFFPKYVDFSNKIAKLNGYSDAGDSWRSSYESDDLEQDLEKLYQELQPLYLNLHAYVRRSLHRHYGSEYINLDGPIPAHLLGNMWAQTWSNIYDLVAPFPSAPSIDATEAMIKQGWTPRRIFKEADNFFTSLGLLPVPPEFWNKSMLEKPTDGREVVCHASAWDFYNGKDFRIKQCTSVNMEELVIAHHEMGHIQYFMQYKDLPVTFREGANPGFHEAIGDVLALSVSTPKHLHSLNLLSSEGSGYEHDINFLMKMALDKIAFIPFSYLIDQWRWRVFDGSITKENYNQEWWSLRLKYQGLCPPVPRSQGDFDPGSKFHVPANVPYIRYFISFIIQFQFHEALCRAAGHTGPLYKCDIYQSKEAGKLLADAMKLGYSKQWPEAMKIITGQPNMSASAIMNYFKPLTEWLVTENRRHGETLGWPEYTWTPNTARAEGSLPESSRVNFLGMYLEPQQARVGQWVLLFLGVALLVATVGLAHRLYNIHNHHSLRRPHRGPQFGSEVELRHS
Format: functional, organism-based
Work on `C[C@H](NC(=O)[C@@H](CS)Cc1ccccc1)C(=O)N1c2ccccc2C[C@H]1C(=O)O` yielded an ED50 of 0.15 µmol/kg.
With `C[C@H](NC(=O)[C@@H](CS)Cc1ccccc1)C(=O)N1CCC[C@H]1C(=O)O` the ED50 was 0.5 µmol/kg.
`O=C(O)CN1C(=O)[C@@H](NC(=O)[C@@H](S)Cc2ccccc2)CCc2ccccc21` showed an ED50 of 0.02 µmol/kg.
For `C[C@H](NC(=O)[C@@H](CS)Cc1ccccc1)C(=O)N1Cc2ccccc2C[C@H]1C(=O)O`, the ED50 was 0.57 µmol/kg.
Molecule `C[C@H](NC(=O)[C@@H](S)Cc1ccccc1)C(=O)N1CCC[C@H]1C(=O)O` has an ED50 of 0.06 µmol/kg.
